In US9133219B2, “Bicyclic antibiotics” (Basilea Pharmaceutica AG, priority 2009, dated 2015) one finds MIC data, which are given here for seven compounds.

Values after ≈ are worked out from the molar mass of the structure shown.

Common to all, as to assay type: cell-based
One assay deals with Escherichia coli. The assay is described as follows: Anti-microbial activity assay, MIC by broth microdilution. The conditions noted are these: Escherichia coli; strain UB1005; read-out: MIC Escherichia coli UB1005. The method, boiled down: (§1)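 MIC read by eye on illuminated mirror reader after 20 to 24 h at 35° C, ambient air. Method: CLSI broth microdilution, CAMHB medium; S. pneumoniae tested in CAMHB + 5% v/v horse serum.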

A further assay concerns Staphylococcus aureus. The description is as above. As to conditions: Staphylococcus aureus; strain ATCC29213; read-out: MIC Staphylococcus aureus ATCC29213. The method, boiled down:
as §1

The subject of assay [1] is Staphylococcus epidermidis. The description is as above. The conditions noted are these: Staphylococcus epidermidis; strain ATCC14990. The method, boiled down:
as §1

Another assay concerns Streptococcus pneumoniae. The assay is described as follows: Anti-microbial activity assay, MIC by broth microdilution (CAMHB with 5% horse serum). As to conditions: Streptococcus pneumoniae; strain ATCC49619; CAMHB with 5% horse serum; read-out: MIC Streptococcus pneumoniae ATCC49619. The method, boiled down: as §1
Assay [2] deals with Staphylococcus aureus and/or Staphylococcus epidermidis. The experiment in a line: MIC summary statement, staphylococci. The conditions noted are these: generally, for Staphylococcus aureus and/or Staphylococcus epidermidis. The method, boiled down:
as §1

In assay [3] the test system is Staphylococcus aureus and/or Staphylococcus epidermidis and/or Streptococcus pneumoniae. The assay is described as follows: MIC summary statement, staphylococci and pneumococci. As to conditions: generally, for Staphylococcus aureus and/or Staphylococcus epidermidis and/or Streptococcus pneumoniae. The method, boiled down:
as §1

Assay [4] has as its system Staphylococcus aureus and/or Staphylococcus epidermidis and/or Streptococcus pneumoniae and/or Escherichia coli. The assay is described as follows: MIC summary statement, staphylococci, pneumococci and E. coli. As to conditions: generally, for S. aureus and/or S. epidermidis and/or S. pneumoniae and/or E. coli; in most case of less than 2 mg/L. The procedure: Anti-Microbial Activity Assay.
The antibacterial activity of compounds is determined by the minimal inhibitory concentration (MIC) method. MICs for all bacteria except pneumococci and Haemophilus influenzae are obtained by broth microdilution with cation-adjusted Mueller-Hinton broth (CAMHB; BBL), according to CLSI guidelines (National Committee for Clinical Laboratory Standards. 2003. Methods for dilution antimicrobial susceptibility tests for bacteria that grow aerobically, 5th ed.; approved standard M7-A6. National Committee for Clinical Laboratory Standards, Wayne, Pa.), with the following modifications: (i) for pneumococci CAMHB is supplemented with 5% (^v/v) horse serum; (ii) for Haemophilus influenzae CAMHB is supplemented with 5% (^v/v) Fildes enrichment (BBL) (Pankuch, G. A., Hoellman, D. B., Lin, G., Bajaksouzian, S., Jacobs, M. R., and Appelbaum, P. C. 1998. Activity of HMR 3647 compared to those of five agents against Haemophilus influenzae and Moraxella catarrhalis by MIC determination and time-kill assay. Antimicrob. Agents Chemother. 42:3032-3034). Microtiter plates are incubated at 35° C. in ambient air for 20 to 24 h, then inspected using an illuminated microtiter plate reader fitted with a magnifying mirror (MIC 2000; Cooke Laboratory Products, Alexandria, Va.). Compounds of the present invention are tested against several bacteria strains comprising some Acinetobacter baumannii, Enterococcus faecalis, Enterococcus faecitan, Escherichia coli, Haemophilus influenzae, Klebsiella pneumoniae, Pseudomonas aeruginosa, Staphylococcus aureus, Staphylococcus epidermidis and Streptococcus pneumoniae.

For `COc1ccc2ncc(SCCN3CCC(NC(=O)c4cc5c(cc4Cl)SCC(=O)N5)CC3)nc2c1` [Example 37, 7-chloro-3-oxo-3,4-dihydro-2H-benzo[1,4]thiazine-6-carboxylic acid {1-[2-(7-methoxy-quinoxalin-2-ylsulfanyl)-ethyl]-piperidin-4-yl}-amide], the MIC (in the assay with Escherichia coli; with Staphylococcus aureus; in assay [1]; in the assay with Streptococcus pneumoniae; in assay [2]; in assay [3]) was at most 2 µg/mL in each case. In assay [4], this compound registered an MIC of at most 4 µg/mL.
Take `COc1ccc2ncc(SCCN3CCC(NCc4ccc5c(n4)NC(=O)CO5)CC3)nc2c1` [Example 45, 6-({1-[2-(7-methoxy-quinoxalin-2-ylsulfanyl)-ethyl]-piperidin-4-ylamino}-methyl)-4H-pyrido[3,2-b][1,4]oxazin-3-one]: the MIC (in the assay with Escherichia coli; in the assay with Staphylococcus aureus; in assay [1]; in the assay with Streptococcus pneumoniae; in assay [2]; in assay [3]) was at most 2 µg/mL each time. For the same compound, the MIC in assay [4] is at most 4 µg/mL.
Consider `COc1ccc2ncc(SCCN3CCC(NCc4ccc5c(c4)NC(=O)CS5)CC3)nc2c1` [Example 46, 6-({1-[2-(7-methoxy-quinoxalin-2-ylsulfanyl)-ethyl]-piperidin-4-ylamino}-methyl)-4H-benzo[1,4]thiazin-3-one], for which the minimal inhibitory concentration (MIC) (with Escherichia coli; with Staphylococcus aureus; in assay [1]; in the assay on Streptococcus pneumoniae; in assay [2]; in assay [3]) was at most 2 µg/mL throughout. This compound displayed an MIC in assay [4] of at most 4 µg/mL.
`COc1ccc2ncc(SCCN3CCC(NCc4cc5c(cc4Cl)SCC(=O)N5)CC3)nc2c1` [Example 48, 7-chloro-6-({1-[2-(7-methoxy-quinoxalin-2-ylsulfanyl)-ethyl]-piperidin-4-ylamino}-methyl)-4H-benzo[1,4]thiazin-3-one]: the MIC (with Escherichia coli; in the assay with Staphylococcus aureus; in assay [1]; in the assay on Streptococcus pneumoniae; in assay [2]; in assay [3]) was at most 2 µg/mL each time. The compound also displayed a minimal inhibitory concentration (MIC) in assay [4] of at most 4 µg/mL.
For `COc1ccc2ncc(SCCN3CCC(NCc4cc5c(cc4Cl)SCCN5)CC3)nc2c1` [Example 49, (7-chloro-3,4-dihydro-2H-benzo[1,4]thiazin-6-ylmethyl)-{1-[2-(7-methoxy-quinoxalin-2-ylsulfanyl)-ethyl]-piperidin-4-yl}-amine], the MIC is 4 µg/mL (≈ 7.75 µM) with Escherichia coli; at most 2 µg/mL in the assay on Staphylococcus aureus; at most 2 µg/mL in assay [1]; at most 2 µg/mL in the assay on Streptococcus pneumoniae; at most 2 µg/mL in assay [2]; at most 2 µg/mL in assay [3]. The same compound returned a minimum inhibitory concentration (MIC) in assay [4] of at most 4 µg/mL.
On to `COc1ccc2ncc(SCCN3CCC(NC(=O)c4ccc5c(n4)NC(=O)CS5)CC3)nc2c1` [Example 50, 3-oxo-3,4-dihydro-2H-pyrido[3,2-b][1,4]thiazine-6-carboxylic acid {1-[2-(7-methoxy-quinoxalin-2-ylsulfanyl)-ethyl]-piperidin-4-yl}-amide], for which the MIC was 4 µg/mL (≈ 7.83 µM) in the assay with Escherichia coli; at most 2 µg/mL in the assay on Staphylococcus aureus; at most 2 µg/mL in assay [1]; at most 2 µg/mL in the assay with Streptococcus pneumoniae; at most 2 µg/mL in assay [2]; at most 2 µg/mL in assay [3]. In addition, in assay [4], the MIC was at most 4 µg/mL.
In the case of `COc1ccc2ncc(SCCN3CCC(NC(=O)c4ccc5c(c4)NC(=O)CS5)CC3)cc2c1` [Example 53, 3-oxo-3,4-dihydro-2H-benzo[1,4]thiazine-6-carboxylic acid {1-[2-(6-methoxy-quinolin-3-ylsulfanyl)-ethyl]-piperidin-4-yl}-amide], the MIC in the assay on Escherichia coli was 4 µg/mL (≈ 7.86 µM); in the assay on Staphylococcus aureus, at most 2 µg/mL; in assay [1], at most 2 µg/mL; with Streptococcus pneumoniae, at most 2 µg/mL; in assay [2], at most 2 µg/mL; in assay [3], at most 2 µg/mL. The same compound gave an MIC in assay [4] of at most 4 µg/mL.
